Measurements from the supplement of paper PMC10307832.

What was measured:
Assay in all cases: relative viability (nuclei count vs DMSO), 5 days (fraction); higher = more cells survive
Tosedostat + Dasatinib = compound: CC(C)C[C@@H](C(=O)N[C@H](C(=O)OC1CCCC1)c1ccccc1)[C@H](O)C(=O)NO [Tosedostat] + Cc1nc(Nc2ncc(C(=O)Nc3c(C)cccc3Cl)s2)cc(N2CCN(CCO)CC2)n1 [Dasatinib] (partner 0.075 µM)
Outline: (§1)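 For relative viability, nuclei counts in treated wells were divided by those in vehicle wells. Lung cancer cell lines had been pin-tool dosed in 1536-well plates the day after seeding and cultured for 5 days, then fixed and stained in one step (final 0.05% Triton X-100, 1% formaldehyde, 1 ug/ml Hoechst) and imaged at 4×. Doses were one drug alone or a fixed anchor-drug dose plus five library-drug doses (not always all listed) in √10 steps, and values are duplicate-plate medians.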

[1] = compound: CC1=NN=C(O1)C2=NN=C(C=C2)N3CCC(CC3)OC4=C(C=CC(=C4)F)Cl + CC(=O)Nc1cccc(-n2c(=O)n(C3CC3)c(=O)c3c(Nc4ccc(I)cc4F)n(C)c(=O)c(C)c32)c1 [Trametinib] (partner 0.02 µM)
Outline: as §1

[2] = compound: CC1=NN=C(O1)C2=NN=C(C=C2)N3CCC(CC3)OC4=C(C=CC(=C4)F)Cl + COc1cc2c(Oc3ccc(NC(=O)C4(C(=O)Nc5ccc(F)cc5)CC4)cc3F)ccnc2cc1OCCCN1CCOCC1 [Foretinib] (partner 0.25 µM)
Outline: as §1

Tosedostat + Bortezomib = compound: CC(C)C[C@@H](C(=O)N[C@H](C(=O)OC1CCCC1)c1ccccc1)[C@H](O)C(=O)NO [Tosedostat] + CC(C)C[C@H](NC(=O)[C@H](Cc1ccccc1)NC(=O)c1cnccn1)B(O)O [Bortezomib] (partner 0.002 µM)
Outline: as §1

Cell Line | relative viability (Tosedostat + Dasatinib; first compound 0.02 µM) | relative viability (Tosedostat + Dasatinib; first compound 0.06325 µM) | relative viability (Tosedostat + Dasatinib; first compound 0.2 µM) | relative viability (Tosedostat + Dasatinib; first compound 0.6325 µM) | relative viability (Tosedostat + Dasatinib; first compound 2 µM) | relative viability ([1]; first compound 0.253 µM) | relative viability ([1]; first compound 0.8 µM) | relative viability ([1]; first compound 2.53 µM) | relative viability ([1]; first compound 8 µM) | relative viability ([2]; first compound 0.253 µM) | relative viability ([2]; first compound 0.8 µM) | relative viability ([2]; first compound 2.53 µM) | relative viability ([2]; first compound 8 µM) | relative viability (Tosedostat + Bortezomib; first compound 0.02 µM) | relative viability (Tosedostat + Bortezomib; first compound 0.06325 µM) | relative viability (Tosedostat + Bortezomib; first compound 0.2 µM) | relative viability (Tosedostat + Bortezomib; first compound 0.6325 µM) | relative viability (Tosedostat + Bortezomib; first compound 2 µM)
NCI-H1793 | 0.431 | 0.408 | 0.388 | 0.316 | 0.37 | 0.434 | 0.511 | 0.509 | 0.403 | 0.448 | 0.639 | 0.565 | 0.621 |  |  |  |  | 
NCI-H2228 | 0.51 | 0.497 | 0.494 | 0.344 | 0.338 | 0.373 | 0.41 | 0.548 | 0.612 | 0.723 | 0.66 | 0.845 | 0.632 | 1.33 | 0.948 | 0.827 | 0.896 | 0.744
NCI-H1299 |  |  |  |  |  |  |  |  |  | 1.09 | 1.08 | 1.05 | 1.02 | 1.05 | 1 | 1.01 | 0.965 | 0.893
NCI-H522 | 0.901 | 0.982 | 0.858 | 0.843 | 0.945 | 0.785 | 0.852 | 0.783 | 0.924 |  |  |  |  |  |  |  |  | 
NCI-H1703 |  |  |  |  |  |  |  |  |  |  | 0.438 | 0.394 | 0.478 | 0.447 | 0.297 | 0.235 | 0.221 | 0.301
NCI-H1648 |  |  |  |  |  | 0.442 | 0.43 | 0.405 | 0.479 |  |  |  |  |  |  |  |  | 
SK-MES-1 | 0.285 | 0.237 | 0.329 | 0.213 | 0.229 | 0.486 | 0.573 | 0.507 | 0.501 | 0.824 | 0.835 | 0.939 | 0.855 |  |  |  |  | 
NCI-H2342 | 0.306 | 0.367 | 0.321 | 0.275 | 0.295 | 0.581 | 0.554 | 0.55 | 0.486 | 0.671 | 0.627 | 0.684 | 0.545 |  |  |  |  | 
SW 900 | 0.54 | 0.485 | 0.714 | 0.875 | 0.416 |  | 0.749 | 0.862 | 0.621 |  |  | 0.822 | 0.73 |  |  |  |  | 
LK-2 | 0.29 | 0.275 | 0.296 | 0.4 | 0.267 | 0.728 | 0.732 | 0.867 | 0.828 | 1.11 | 1.05 | 1.45 | 1.5 |  |  |  |  | 
NCI-H1395 | 0.383 | 0.426 | 0.448 | 0.468 | 0.41 | 0.963 | 0.978 | 0.89 | 1 | 0.939 | 0.901 | 0.969 | 0.893 |  |  |  |  | 
A549 |  |  |  |  |  |  |  |  |  | 0.746 | 0.545 | 0.464 | 0.53 |  |  |  |  | 
NCI-H2170 | 0.575 | 0.514 | 0.558 | 0.63 | 0.451 | 0.377 | 0.392 | 0.368 | 0.356 | 0.466 | 0.575 | 0.583 | 0.432 |  |  |  |  | 
ABC-1 | 0.632 | 0.598 | 0.519 | 0.563 | 0.481 |  |  |  |  | 0.601 | 0.439 | 0.578 | 0.644 | 0.289 | 0.344 | 0.328 | 0.274 | 0.306
